Values of other authors in US20040197429A1, “Selective COX-2 inhibition from plant extracts” (Pharmacia Corporation, priority 2000, published 2004).

System: COX-1 and COX-2
Settings: background

Structure (SMILES): CC(=O)Oc1ccccc1C(=O)O [aspirin]
- effectiveness inactivating COX-1 as opposed to COX-2: 10 to 100 times
